From patent publication US11911468B2, “Compositions and methods of treating sarcoma lung metastasis” (CASE WESTERN RESERVE UNIVERSITY, priority 2017, dated 2024) come the findings set out here.

This experiment concerns K7M2-luc2 pOS (VCAM-1/α4β1 interaction). Description: Established pOS after K7M2-luc2 i.v., weekly intranasal blockade of VCAM-1/a4 from Day 7. The conditions noted are these: 50 μg i.n. weekly from Day 7. In kind it is in vivo, Balb/c mice. On the procedure: FIGS. 9A-C illustrate targeting site-specific VCAM-1/a4 interaction blunted established pOS growth in vivo. (A) Balb/c mice were inoculated with 5×10^5 K7M2-luc2 i.v. on Day 0, and then treated with i.n. PBS, 50 μg iVCAM-1p, or 50 μg PS/2 (anti-a4) antibody weekly starting on Day 7. (A) representative images of mice up to 35 days. […] (C) 60% and 80% of pOS mice remained tumor free 1 month after weekly i.n. treatment with PS/2 antibody (filled circle) or iVCAM-1p (filled triangle), respectively. N=5-8 in each cohort.
To strengthen the crucial link between tVCAM-1 and α4β1 (FIGS. 5-8) and pOS survival, we performed pilot experiments to test whether direct functional blockade of VCAM-1/α4β1 interaction in the lung would result in the same pOS outcome as observed with MACs depletion. In collaboration with Nicole Steinmetz in CWRU School of Engineering, we treated mice (inoculated 7 days prior with a lethal dose of K7M2 i.v.) with weekly i.n. administration of 50 μg of a VCAM-1 inhibitory peptide (iVCAM-1p; amino acid sequence: VHPKQHR (SEQ ID NO: 1)). […] These pilot observations strengthen our hypothesis that pOS-MAC critically interact through the VCAM-1/α4 axis. […] As we administered mAb via i.n. route, much of the reported side effects of chronic systemic Natalizumab exposure (such as hepatic injury and progressive multifocal leukoencephalopathy) can potentially be limited by reducing the dose and targeting locally in the lung.

“Also recorded” adds a separate entry of the source.

Turning to VHPKQHR [iVCAM-1p], the pOS tumor incidence result is given as “dramatic decreased” and the “tumor burden (relative BLI intensity, Day 7 BLI set as 1)” value is recorded as “dramatic decreased; also recorded: reduced tumor burden”. Besides, the “mice remaining tumor free” value (1 month after treatment) worked out at 80%.
